Reference: patent publication US11702417B2, “Compounds for improving mRNA splicing” (The General Hospital Corporation, priority 2015, dated 2023)

Experiments:
[1] = system: FD (familial dysautomonia) IKBKAP minigene, exon 20 inclusion, in HEK293T cells; experiment: Primary splicing assay (FD IKBKAP minigene, Firefly/Renilla luciferase reporter in HEK293T); type: cell-based, human; conditions: Homo sapiens, HEK-293T, Firefly/Renilla ratio, 24 hours of treatment; for EC (maximum kinetin efficacy): HEK293T, read-out: ECk (compound concentration at which the maximum kinetin efficacy (200 μM) is reached); for Emax: max efficacy in Primary Assay, kinetin and DMSO as positive and negative controls, read-out: Emax (%)
[2] = system: IKBKAP splicing (exon 20 inclusion) in FD fibroblasts GM04663; experiment: Secondary assay: IKBKAP splicing analysis by RT-PCR in FD fibroblasts GM04663; type: cell-based; conditions: Homo sapiens, FD fibroblasts GM04663, 24 hours of treatment, read-out: % exon Inclusion Normalized
[3] = In vivo FD mouse model: presence of compound in plasma and brain; conditions: oral gavage eight days, 1 hour after last dose
Experimental: (§1) Compound (100) was administered by oral gavage for eight days at 60 mg/kg/day, 30 mg/kg/day and 10 mg/kg/day to the mouse transgenic familial dysautonomia (FD) model. Every dosing group and the control group (vehicle) consisted of 6 mice. The mice were given food and water ad libitum, and changes in body weights were monitored on a daily basis. On the eighth day the mice were dosed for the last time and after 1 hour the mice were sacrificed and dissected. Plasma, liver, kidney, heart and brain were collected.

IKBKAP exon 20 inclusion = experiment: In vivo familial dysautonomia mouse model: splicing analysis in tissues; conditions: for inclusion of exon 20 in C57BI6-FD mouse tissues (FIGS. 1A-6): 10, 30 and 60 mg/kg/day, 8 days
Experimental: as §1, with “Compound (100) was administered by oral gavage for eight days at 60 mg/kg/day, 30 mg/kg/day and 10 mg/kg/day to the mouse transgenic familial dysautonomia (FD) model.” left out
The following solutions were prepared daily: Compound (230) in 10% DMA/45% PEG 300/12% EtOH/33% sterile water; and Compound (270) in 10% DMA/45% PEG 300/12% EtOH/33% sterile water.
[…] Six transgenic mice were fed daily with 10% DMA/45% PEG 300/12% EtOH/33% sterile water solution for the same duration. The mice were given food and water ad libitum, and changes in body weights were monitored on a daily basis. On the eighth day the mice were dosed for the last time and after 1 hour were sacrificed and dissected. Plasma, lungs, muscle, liver, heart, brain, kidney, sciatic nerve, and trigeminal nerve were collected. Splicing was evaluating by RT-PCT and IKAP protein was evaluated using Western Blotting.

IKAP protein = experiment: In vivo FD mouse model: IKAP protein in liver by western blot; conditions: 400 mg/kg/day
Experimental: Six transgenic mice were fed daily with 10% DMA/45% PEG 300/12% EtOH/33% sterile water solution for the same duration. The mice were given food and water ad libitum, and changes in body weights were monitored on a daily basis. On the eighth day the mice were dosed for the last time and after 1 hour were sacrificed and dissected. Plasma, lungs, muscle, liver, heart, brain, kidney, sciatic nerve, and trigeminal nerve were collected. Splicing was evaluating by RT-PCT and IKAP protein was evaluated using Western Blotting. Protein extracts were obtained by homogenizing liver or cell pellets in RIPA buffer (Tris-HCl 50 mM, pH 7.4; NaCl 150 mM; NP-40 1%; Sodium deoxycholate 0.5%; SDS 0.1%) containing protease inhibitor cocktail (Sigma), DTT (100 μM) and PMSF (100 μM). Insoluble debris were discarded after centrifugation and protein concentration was determined using Pierce® […] BCA Protein Assay Kit (Thermo Scientific). 50 μg of protein was separated on NuPage 4-12% Bis-Tris Gel (Invitrogen) and transferred into nitrocellulose membrane (Thermo Scientific). […]

IKBKAP splicing = conditions: mice, oral, 400 mg/kg/day for 7 days; cited from earlier work
[4] = system: normal IKBKAP mRNA in peripheral blood; conditions: human patients and carriers of familial dysautonomia, preliminary testing; cited from earlier work

Structure (SMILES) | EC (maximum kinetin efficacy) [1] | Emax [1] | activation at 0.08 µM [2] | activation at 0.8 µM [2] | further results
Clc1nc(NCc2ccncc2)c2cc[nH]c2n1 [(100)] | 2.18 µM | 235% | 22.6% | 62.1% | presence of compound in brain [3]: evident in the brain; presence of compound in plasma [3]: presence of (100) in the plasma
COc1nc2c(NCc3nccs3)nc(Cl)nc2[nH]1 [(230)] | 1.5 µM | 216% | 22.3% | 70% | inclusion of exon 20 in C57BI6-FD mouse tissues (FIGS. 1A-6) (IKBKAP exon 20 inclusion): useful for improving inclusion of exon 20
FC(F)(F)COc1nc2c(NCc3ccco3)nc(Cl)nc2[nH]1 [(270)] | 0.59 µM | 218% | 28.7% | 101% | inclusion of exon 20 in C57BI6-FD mouse tissues (FIGS. 1A-6) (IKBKAP exon 20 inclusion): useful for improving inclusion of exon 20
Clc1nc(NCc2ccco2)c2nn[nH]c2n1 [(285)] | 6.78 µM | 115% | 0.06% | 1.46% | –
FC(F)(F)COc1nc2c(NCc3nccs3)nc(Cl)nc2[nH]1 [(302)] | 1.42 µM | 176% | 23.3% | 90.8% | –
COCCOc1nc2c(NCc3ccncn3)nc(Cl)nc2[nH]1 [(319)] | 1.56 µM | 204% | 14.2% | 77.8% | –
CCOc1nc2c(NCc3ccncn3)nc(Cl)nc2[nH]1 [(320)] | 0.52 µM | 208% | 47.1% | 103% | –
Clc1nc(NCc2nccs2)c2nc(OCC3CCO3)[nH]c2n1 (stereo not drawn) [(346)] | 1.42 µM | 181% | 23.2% | 58.6% | –
FC(F)COc1nc2c(NCc3nccs3)nc(Cl)nc2[nH]1 [(347)] | 0.77 µM | 186% | 18.3% | 72% | –
Clc1nc(NCc2nccs2)c2nc(OCc3cscn3)[nH]c2n1 [(348)] | 0.7 µM | 171% | 49% | 102% | –
FC(F)COc1nc2c(NCc3ccncn3)nc(Cl)nc2[nH]1 [(349)] | 0.29 µM | 227% | 27.1% | 95.3% | –
FC1(F)CC(COc2nc3c(NCc4nccs4)nc(Cl)nc3[nH]2)C1 [(362)] | 0.22 µM | 250% | 63.8% | 105% | –
Clc1nc(NCc2cscn2)c2cc[nH]c2n1 [(372)] | 3.71 µM | 126% | 13.4% | 48.7% | –
FCCn1ncc2c(NCc3ccco3)nc(Cl)nc21 [Example 12, 6-Chloro-1-(2-fluoroethyl)-N-(furan-2-ylmethyl)-1H-pyrazolo[3,4-d]pyrimidin-4-amine] | – | – | – | – | melting point: 125 to 128 °C
c1coc(CNc2ncnc3nc[nH]c23)c1 [kinetin, N^6-furfuryladenine, reference compound] | – | – | – | – | activation at 200 µM ([2]; 200 μM (kinetin control)): 100%; splicing in kidney (IKBKAP exon 20 inclusion; 400 mg/kg/day): no significant changes in splicing; splicing in brain (IKBKAP exon 20 inclusion; 400 mg/kg/day, 8 days of treatment): no significant change; level of the IKAP protein in liver (IKAP protein): no significant changes; IKBKAP splicing in vivo in certain tissues, including the brain (IKBKAP splicing): improve IKBKAP splicing in vivo; normal IKBKAP mRNA in peripheral blood [4]: increased normal IKBKAP mRNA in peripheral blood
